Measurements from PubChem BioAssay AID248 (DTP/NCI, 2004).
Values joined by “and” are separate entries in the source; they are usually repeats but may differ in a detail not shown here. Equal values may be shown once. Toxic doses and inconclusive results are not listed.

Test system: L1210 leukemia ip in BDF1 mice, survival T/C
Experiment: NCI In Vivo Anticancer Drug Screen. Data for tumor model L1210 Leukemia (intraperitoneal) in B6D2F1 (BDF1) mice
Details: endpoint: mean survival time, higher = longer survival
Outline: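 Survival endpoint. Drug-treated group vs vehicle group, expressed as T divided by C. Tumor passaged by transplantation.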

For `O=C(O)c1[nH]c(=O)[nH]c(=O)c1F`, the T/C (dose: 0.09 mg/kg/injection, schedule: Q01DX005 (oral), vehicle: saline) was 112 % of control, the T/C (dose: 0.18 mg/kg/injection, schedule: Q01DX005 (oral), vehicle: saline) was 108 % of control and the T/C (dose: 0.18 mg/kg/injection, schedule: Q01DX015 (ip), vehicle: saline) was 115 % of control. For the same compound, the T/C (dose: 0.37 mg/kg/injection, schedule: Q01DX005 (oral), vehicle: saline) was 115 % of control, the T/C (dose: 0.37 mg/kg/injection, schedule: Q01DX015 (ip), vehicle: saline) was 157 % of control and the T/C (dose: 0.63 mg/kg/injection, schedule: Q01DX015 (ip), vehicle: carboxymethylcellulose (CMC)) was 105 % of control. For the same compound, the T/C (dose: 0.75 mg/kg/injection, schedule: Q01DX005 (oral), vehicle: saline) was 120 % of control, the T/C (dose: 0.75 mg/kg/injection, schedule: Q01DX015 (ip), vehicle: saline) was 188 % of control and the T/C (dose: 0.75 mg/kg/injection, schedule: Q01DX015 (oral), vehicle: saline) was 115 % of control. The T/C (dose: 0.75 mg/kg/injection, schedule: Q## X003 (oral), vehicle: saline) was 101 % of control, the T/C (dose: 0.75 mg/kg/injection, schedule: Q## X024 (oral), vehicle: saline) was 112 % of control and the T/C (dose: 1.0 mg/kg/injection, schedule: Q01DX009 (ip), vehicle: saline with Tween-80) was 114 % of control. For the same compound, the T/C (dose: 1.0 mg/kg/injection, schedule: Q01DX009 (ip), vehicle: saline) was 113 % of control, the T/C (dose: 1.25 mg/kg/injection, schedule: Q01DX009 (ip), vehicle: saline) was 97 % of control and 111 % of control and the T/C (dose: 1.25 mg/kg/injection, schedule: Q01DX015 (ip), vehicle: carboxymethylcellulose (CMC)) was 111 % of control. For the same compound, the T/C (dose: 1.3 mg/kg/injection, schedule: Q## X008 (oral), vehicle: saline) was 111 % of control, the T/C (dose: 1.5 mg/kg/injection, schedule: Q01DX006 (iv), vehicle: saline) was 112 % of control and the T/C (dose: 1.5 mg/kg/injection, schedule: Q01DX009 (oral), vehicle: saline) was 114 % of control. For the same compound, the T/C (dose: 1.5 mg/kg/injection, schedule: Q01DX015 (im), vehicle: saline) was 117 % of control, the T/C (dose: 1.5 mg/kg/injection, schedule: Q01DX015 (sc), vehicle: saline) was 120 % of control and the T/C (dose: 1.5 mg/kg/injection, schedule: Q## X003 (oral), vehicle: saline) was 104 % of control. The T/C (dose: 1.5 mg/kg/injection, schedule: Q## X024 (oral), vehicle: saline) was 113 % of control, the T/C (dose: 2.5 mg/kg/injection, schedule: Q01DX009 (ip), vehicle: saline) was 117 % of control and the T/C (dose: 2.5 mg/kg/injection, schedule: Q01DX015 (ip), vehicle: carboxymethylcellulose (CMC)) was 122 % of control. The T/C (dose: 2.6 mg/kg/injection, schedule: Q## X008 (oral), vehicle: saline) was 114 % of control, the T/C (dose: 3.0 mg/kg/injection, schedule: Q01DX005 (oral), vehicle: saline) was 157 % of control and the T/C (dose: 3.0 mg/kg/injection, schedule: Q01DX006 (iv), vehicle: saline) was 120 % of control. The T/C (dose: 3.0 mg/kg/injection, schedule: Q01DX009 (ip), vehicle: saline) was 165 % of control, the T/C (dose: 3.0 mg/kg/injection, schedule: Q01DX015 (ip), vehicle: saline) was 191 % of control and the T/C (dose: 3.0 mg/kg/injection, schedule: Q01DX015 (oral), vehicle: saline) was 157 % of control. For the same compound, the T/C (dose: 3.0 mg/kg/injection, schedule: Q## X003 (oral), vehicle: saline) was 103 % of control, the T/C (dose: 4.0 mg/kg/injection, schedule: Q01DX009 (ip), vehicle: saline with Tween-80) was 161 % of control and the T/C (dose: 4.0 mg/kg/injection, schedule: Q01DX009 (ip), vehicle: saline) was 165 % of control. The T/C (dose: 5.0 mg/kg/injection, schedule: Q01DX009 (ip), vehicle: saline) was 155 % of control, the T/C (dose: 5.0 mg/kg/injection, schedule: Q01DX015 (ip), vehicle: carboxymethylcellulose (CMC)) was 155 % of control and the T/C (dose: 5.0 mg/kg/injection, schedule: Q01DX Z (ip), vehicle: methylcellulose (MC)) was 119 % of control. For the same compound, the T/C (dose: 5.2 mg/kg/injection, schedule: Q## X008 (oral), vehicle: saline) was 119 % of control, the T/C (dose: 6.0 mg/kg/injection, schedule: Q01DX005 (oral), vehicle: saline) was 174 % of control and the T/C (dose: 6.0 mg/kg/injection, schedule: Q01DX006 (iv), vehicle: saline) was 121 % of control. For the same compound, the T/C (dose: 6.0 mg/kg/injection, schedule: Q01DX009 (ip), vehicle: saline) was 211 % of control, the T/C (dose: 6.0 mg/kg/injection, schedule: Q01DX015 (im), vehicle: saline) was 179 % of control and the T/C (dose: 6.0 mg/kg/injection, schedule: Q01DX015 (ip), vehicle: saline) was 164 % of control. For the same compound, the T/C (dose: 6.0 mg/kg/injection, schedule: Q01DX015 (oral), vehicle: saline) was 191 % of control, the T/C (dose: 6.0 mg/kg/injection, schedule: Q01DX015 (sc), vehicle: saline) was 182 % of control and the T/C (dose: 6.0 mg/kg/injection, schedule: Q## X003 (oral), vehicle: saline) was 113 % of control. For the same compound, the T/C (dose: 6.0 mg/kg/injection, schedule: Q## X024 (oral), vehicle: saline) was 157 % of control, the T/C (dose: 7.0 mg/kg/injection, schedule: Q01DX015 (ip), vehicle: carboxymethylcellulose (CMC)) was 189 % of control and the T/C (dose: 8.0 mg/kg/injection, schedule: Q01DX009 (ip), vehicle: saline) was 188 % of control. For the same compound, the T/C (dose: 10.0 mg/kg/injection, schedule: Q01DX009 (ip), vehicle: saline) was 188 % of control and 206 % of control, the T/C (dose: 10.5 mg/kg/injection, schedule: Q01DX001 (oral), vehicle: saline) was 111 % of control and the T/C (dose: 11.0 mg/kg/injection, schedule: Q01DX015 (ip), vehicle: carboxymethylcellulose (CMC)) was 214 % of control. The T/C (dose: 11.0 mg/kg/injection, schedule: Q01DX Z (ip), vehicle: methylcellulose (MC)) was 109 % of control, the T/C (dose: 12.0 mg/kg/injection, schedule: Q01DX006 (iv), vehicle: saline) was 153 % of control and the T/C (dose: 12.0 mg/kg/injection, schedule: Q01DX009 (ip), vehicle: saline) was 100 % of control and 101 % of control. The T/C (dose: 12.0 mg/kg/injection, schedule: Q01DX015 (im), vehicle: saline) was 162 % of control, the T/C (dose: 12.0 mg/kg/injection, schedule: Q01DX015 (ip), vehicle: saline) was 155 % of control and the T/C (dose: 12.0 mg/kg/injection, schedule: Q01DX015 (sc), vehicle: saline) was 171 % of control. The T/C (dose: 12.0 mg/kg/injection, schedule: Q## X024 (oral), vehicle: saline) was 154 % of control, the T/C (dose: 12.0 mg/kg/injection, schedule: Q## X040 (oral), vehicle: saline) was 87 % of control and the T/C (dose: 16.0 mg/kg/injection, schedule: Q01DX009 (ip), vehicle: saline) was 107 % of control. The T/C (dose: 16.0 mg/kg/injection, schedule: Q01DX015 (ip), vehicle: carboxymethylcellulose (CMC)) was 183 % of control, the T/C (dose: 21.0 mg/kg/injection, schedule: Q01DX001 (oral), vehicle: saline) was 106 % of control and the T/C (dose: 24.0 mg/kg/injection, schedule: Q01DX009 (ip), vehicle: saline) was 110 % of control. For the same compound, the T/C (dose: 24.0 mg/kg/injection, schedule: Q01DX009 (oral), vehicle: saline) was 112 % of control, the T/C (dose: 24.0 mg/kg/injection, schedule: Q01DX015 (im), vehicle: saline) was 120 % of control and the T/C (dose: 24.0 mg/kg/injection, schedule: Q01DX015 (ip), vehicle: saline) was 114 % of control. The T/C (dose: 24.0 mg/kg/injection, schedule: Q01DX015 (oral), vehicle: saline) was 104 % of control, the T/C (dose: 24.0 mg/kg/injection, schedule: Q## X024 (oral), vehicle: saline) was 156 % of control and the T/C (dose: 32.0 mg/kg/injection, schedule: Q04DX003 (ip), vehicle: saline) was 178 % of control. For the same compound, the T/C (dose: 48.0 mg/kg/injection, schedule: Q01DX006 (iv), vehicle: saline) was 183 % of control, the T/C (dose: 48.0 mg/kg/injection, schedule: Q01DX009 (ip), vehicle: saline) was 88 % of control and the T/C (dose: 48.0 mg/kg/injection, schedule: Q01DX009 (oral), vehicle: saline) was 101 % of control. The T/C (dose: 48.0 mg/kg/injection, schedule: Q01DX015 (im), vehicle: saline) was 95 % of control and 112 % of control, the T/C (dose: 48.0 mg/kg/injection, schedule: Q01DX015 (ip), vehicle: carboxymethylcellulose (CMC)) was 120 % of control and the T/C (dose: 48.0 mg/kg/injection, schedule: Q01DX015 (ip), vehicle: saline) was 101 % of control and 114 % of control. The T/C (dose: 48.0 mg/kg/injection, schedule: Q01DX015 (oral), vehicle: saline) was 97 % of control, the T/C (dose: 48.0 mg/kg/injection, schedule: Q01DX015 (sc), vehicle: saline) was 106 % of control and 108 % of control and the T/C (dose: 48.0 mg/kg/injection, schedule: Q## X003 (oral), vehicle: saline) was 158 % of control. For the same compound, the T/C (dose: 48.0 mg/kg/injection, schedule: Q## X024 (oral), vehicle: saline) was 109 % of control, the T/C (dose: 64.0 mg/kg/injection, schedule: Q04DX003 (ip), vehicle: saline) was 193 % of control and the T/C (dose: 84.0 mg/kg/injection, schedule: Q01DX001 (oral), vehicle: saline) was 121 % of control. The T/C (dose: 96.0 mg/kg/injection, schedule: Q01DX006 (iv), vehicle: saline) was 106 % of control, the T/C (dose: 96.0 mg/kg/injection, schedule: Q01DX015 (im), vehicle: saline) was 86 % of control and the T/C (dose: 96.0 mg/kg/injection, schedule: Q01DX015 (oral), vehicle: saline) was 87 % of control. For the same compound, the T/C (dose: 96.0 mg/kg/injection, schedule: Q## X024 (oral), vehicle: saline) was 98 % of control, the T/C (dose: 192.0 mg/kg/injection, schedule: Q01DX006 (iv), vehicle: saline) was 104 % of control and the T/C (dose: 192.0 mg/kg/injection, schedule: Q01DX015 (oral), vehicle: saline) was 87 % of control. The T/C (dose: 356.0 mg/kg/injection, schedule: Q## X008 (oral), vehicle: saline) was 111 % of control, the T/C (dose: 384.0 mg/kg/injection, schedule: Q01DX006 (iv), vehicle: saline) was 86 % of control and the T/C (dose: 384.0 mg/kg/injection, schedule: Q## X003 (oral), vehicle: saline) was 122 % of control. The T/C (dose: 712.0 mg/kg/injection, schedule: Q01DX001 (oral), vehicle: saline) was 150 % of control, the T/C (dose: 768.0 mg/kg/injection, schedule: Q## X003 (oral), vehicle: saline) was 108 % of control and the T/C (dose: 1000.0 mg/kg/injection, schedule: Q01DX001 (oral), vehicle: saline) was 160 % of control. The T/C (dose: 1000.0 mg/kg/injection, schedule: Q## X003 (oral), vehicle: saline) was 103 % of control.
